Columns and labels:
[1] = target: DNA topoisomerase 2-alpha (Homo sapiens) (UniProt P11388); assay: Inhibition of recombinant human topoisomerase 2alpha assessed as relaxation of supercoiled plasmid pBR322 DNA at 100 uM by agarose gel electrophoresis relative to control
[2] = target: T1, DNA topoisomerase 1 (Homo sapiens) (UniProt P11387); assay: Inhibition of recombinant human topoisomerase 1 assessed as relaxation of supercoiled plasmid pBR322 DNA at 100 uM by agarose gel electrophoresis relative to control
T1 sequence (whole entry): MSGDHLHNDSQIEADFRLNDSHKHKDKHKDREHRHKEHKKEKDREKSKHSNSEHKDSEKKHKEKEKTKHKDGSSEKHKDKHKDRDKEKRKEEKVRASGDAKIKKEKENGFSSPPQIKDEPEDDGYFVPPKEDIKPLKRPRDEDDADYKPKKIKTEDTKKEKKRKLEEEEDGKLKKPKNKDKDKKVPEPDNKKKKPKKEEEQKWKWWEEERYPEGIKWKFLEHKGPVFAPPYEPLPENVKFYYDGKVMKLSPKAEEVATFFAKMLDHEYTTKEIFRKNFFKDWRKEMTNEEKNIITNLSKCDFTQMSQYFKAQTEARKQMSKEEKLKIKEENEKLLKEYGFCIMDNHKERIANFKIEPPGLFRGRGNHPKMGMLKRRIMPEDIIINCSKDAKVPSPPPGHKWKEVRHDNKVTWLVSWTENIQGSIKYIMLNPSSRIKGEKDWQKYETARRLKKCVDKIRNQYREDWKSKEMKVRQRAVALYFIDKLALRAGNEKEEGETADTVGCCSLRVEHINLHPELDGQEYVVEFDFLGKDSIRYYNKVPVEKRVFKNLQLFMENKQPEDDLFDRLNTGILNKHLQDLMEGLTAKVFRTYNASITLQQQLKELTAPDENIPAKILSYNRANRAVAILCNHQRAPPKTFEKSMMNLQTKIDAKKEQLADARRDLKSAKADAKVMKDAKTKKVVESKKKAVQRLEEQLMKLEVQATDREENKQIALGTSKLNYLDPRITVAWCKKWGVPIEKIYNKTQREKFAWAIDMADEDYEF

[3] = target: T1, DNA topoisomerase 1 (Homo sapiens); assay: Inhibition of recombinant human topoisomerase 1 assessed as relaxation of supercoiled plasmid pBR322 DNA at 20 uM by agarose gel electrophoresis relative to control
HCT-15 = assay: Antiproliferative activity against human HCT-15 cells after 72 hrs by EZ-Cytox colorimetric assay; format: functional, cell-based; conditions: HCT-15, 72 h
[4] = Toxicity in mouse assessed as reduction in number of red blood cells at 2 mg/kg; format: organism-based; conditions: in vivo
[5] = Toxicity in mouse assessed as reduction in hemoglobin level at 2 mg/kg; format: organism-based; conditions: in vivo
[6] = Genotoxicity in human HCT-15 cells assessed as production of Ub1-gamma-H2AX at 0.2 uM and measured by western blot analysis; format: toxicity, cell-based; conditions: hct-15, 0.2 µM
[7] = Toxicity in mouse assessed as reduction in hemoglobin level at 20 mg/kg; format: organism-based; conditions: in vivo
[8] = Genotoxicity in human HCT-15 cells assessed as production of gamma-H2AX at 2 uM and measured by western blot analysis; format: toxicity, cell-based; conditions: hct-15, 2 µM
[9] = Genotoxicity in human HCT-15 cells assessed as production of gamma-H2AX at 0.2 uM and measured by western blot analysis; format: toxicity, cell-based; conditions: hct-15, 0.2 µM
DU-145 = assay: Antiproliferative activity against human DU-145 cells after 72 hrs by EZ-Cytox colorimetric assay; format: functional, cell-based; conditions: DU-145, 72 h
[10] = Toxicity in mouse assessed as reduction in number of red blood cells at 20 mg/kg; format: organism-based; conditions: in vivo
[11] = Toxicity in mouse assessed as increase in mean corpuscular volume of RBC at 2 mg/kg; format: organism-based, Erythrocyte; conditions: in vivo
[12] = Toxicity in mouse assessed as increase in d red cell distribution width at 20 mg/kg; format: organism-based; conditions: in vivo
[13] = Genotoxicity in human HCT-15 cells assessed as production of Ub1-gamma-H2AX at 2 uM and measured by western blot analysis; format: toxicity, cell-based; conditions: hct-15, 2 µM
[14] = Toxicity in mouse assessed as increase in mean corpuscular volume of RBC at 20 mg/kg; format: organism-based, Erythrocyte; conditions: in vivo
[15] = Toxicity in mouse assessed as reduction in number of absolute neutrophil count at 2 to 20 mg/kg; format: organism-based; conditions: dose 2-20 mg/kg
[16] = Toxicity in mouse assessed as reduction in number of white blood cells at 2 to 20 mg/kg; format: organism-based; conditions: in vivo, dose 2-20 mg/kg
HeLa = assay: Antiproliferative activity against human HeLa cells after 72 hrs by EZ-Cytox colorimetric assay; format: functional, cell-based
[17] = Genotoxicity in human HCT-15 cells assessed as production of fragmented DNA tails at 0.2 uM and measured by comet assay; format: toxicity, cell-based; conditions: hct-15, 0.2 µM
[18] = Toxicity in mouse assessed as increase in d red cell distribution width at 2 mg/kg; format: organism-based; conditions: in vivo
T47D = assay: Antiproliferative activity against human T47D cells after 72 hrs by EZ-Cytox colorimetric assay; format: functional, cell-based
[19] = Genotoxicity in human HCT-15 cells assessed as production of fragmented DNA tails at 2 uM and measured by comet assay; format: toxicity, cell-based; conditions: hct-15, 2 µM
[20] = Genotoxicity in human HCT-15 cells assessed as production of fragmented DNA tails at 1 nM and measured by comet assay; format: toxicity, cell-based; conditions: hct-15, 0.001 µM
[21] = Genotoxicity in human HCT-15 cells assessed as production of gamma-H2AX at 100 nM and measured by western blot analysis; format: toxicity, cell-based; conditions: hct-15, 0.1 µM
[22] = Genotoxicity in human HCT-15 cells assessed as production of gamma-H2AX at 1 nM and measured by western blot analysis; format: toxicity, cell-based; conditions: hct-15, 0.001 µM
[23] = Genotoxicity in human HCT-15 cells assessed as production of Ub1-gamma-H2AX at 1 nM and measured by western blot analysis; format: toxicity, cell-based; conditions: hct-15, 0.001 µM
[24] = Genotoxicity in human HCT-15 cells assessed as production of Ub1-gamma-H2AX at 100 nM and measured by western blot analysis; format: toxicity, cell-based; conditions: hct-15, 0.1 µM
[25] = Genotoxicity in human HCT-15 cells assessed as production of fragmented DNA tails at 100 nM and measured by comet assay; format: toxicity, cell-based; conditions: hct-15, 0.1 µM
[26] = target: DNA topoisomerase 2-alpha (Homo sapiens) (UniProt P11388); assay: Inhibition of recombinant human topoisomerase 2alpha assessed as relaxation of supercoiled plasmid pBR322 DNA at 20 uM by agarose gel electrophoresis relative to control
[27] = target: DNA topoisomerase 2-alpha (Homo sapiens) (UniProt P11388); assay: Inhibition of recombinant human topoisomerase 2alpha assessed as relaxation of supercoiled plasmid pBR322 DNA at 100 uM by agarose gel electrophoresis (reference value: 84.9%)
[28] = target: T1, DNA topoisomerase 1 (Homo sapiens); assay: Inhibition of recombinant human topoisomerase 1 assessed as relaxation of supercoiled plasmid pBR322 DNA at 100 uM by agarose gel electrophoresis (reference value: […]%)

Chain of DNA topoisomerase 2-alpha (Homo sapiens) (P11388 whole entry): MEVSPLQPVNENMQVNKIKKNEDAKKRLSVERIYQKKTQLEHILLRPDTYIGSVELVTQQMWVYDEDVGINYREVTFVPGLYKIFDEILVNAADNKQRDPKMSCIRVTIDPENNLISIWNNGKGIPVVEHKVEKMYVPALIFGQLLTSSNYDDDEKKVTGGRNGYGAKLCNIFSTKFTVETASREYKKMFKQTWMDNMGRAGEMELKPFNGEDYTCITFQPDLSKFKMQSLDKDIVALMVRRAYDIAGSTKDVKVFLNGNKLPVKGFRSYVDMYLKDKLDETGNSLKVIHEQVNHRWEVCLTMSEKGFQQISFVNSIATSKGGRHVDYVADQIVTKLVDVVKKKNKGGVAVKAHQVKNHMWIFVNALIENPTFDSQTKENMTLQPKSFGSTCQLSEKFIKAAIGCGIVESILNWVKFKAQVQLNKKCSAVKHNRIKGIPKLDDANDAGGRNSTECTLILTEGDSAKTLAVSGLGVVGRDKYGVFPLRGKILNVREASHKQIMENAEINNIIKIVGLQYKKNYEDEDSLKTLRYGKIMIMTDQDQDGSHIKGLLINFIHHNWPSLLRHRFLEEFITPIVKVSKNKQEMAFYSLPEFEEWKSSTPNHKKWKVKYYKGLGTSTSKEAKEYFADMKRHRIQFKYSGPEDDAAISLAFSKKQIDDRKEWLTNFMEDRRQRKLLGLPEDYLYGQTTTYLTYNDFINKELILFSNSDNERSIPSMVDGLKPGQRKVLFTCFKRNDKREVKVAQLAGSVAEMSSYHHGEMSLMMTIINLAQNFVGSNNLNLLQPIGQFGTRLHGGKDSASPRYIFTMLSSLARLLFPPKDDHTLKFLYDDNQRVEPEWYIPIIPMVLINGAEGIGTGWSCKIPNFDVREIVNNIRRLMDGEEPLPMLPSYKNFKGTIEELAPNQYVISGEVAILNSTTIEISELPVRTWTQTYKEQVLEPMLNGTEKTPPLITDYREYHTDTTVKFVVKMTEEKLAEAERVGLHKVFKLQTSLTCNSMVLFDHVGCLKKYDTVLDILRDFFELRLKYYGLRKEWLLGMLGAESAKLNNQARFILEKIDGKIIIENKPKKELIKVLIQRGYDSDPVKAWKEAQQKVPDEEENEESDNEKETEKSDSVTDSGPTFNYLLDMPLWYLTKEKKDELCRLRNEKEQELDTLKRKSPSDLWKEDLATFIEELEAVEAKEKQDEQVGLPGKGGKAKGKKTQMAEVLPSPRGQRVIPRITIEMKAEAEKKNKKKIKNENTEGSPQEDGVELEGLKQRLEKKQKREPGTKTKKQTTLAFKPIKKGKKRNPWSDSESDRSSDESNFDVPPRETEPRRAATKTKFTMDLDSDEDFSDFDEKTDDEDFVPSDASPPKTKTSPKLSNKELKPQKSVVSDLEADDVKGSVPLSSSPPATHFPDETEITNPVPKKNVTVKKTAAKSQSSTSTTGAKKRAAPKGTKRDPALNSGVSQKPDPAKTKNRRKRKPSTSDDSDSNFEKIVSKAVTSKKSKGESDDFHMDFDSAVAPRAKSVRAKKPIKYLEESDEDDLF

Compound: O=C1c2ccccc2-c2nc(-c3ccccc3)cc(-c3ccccc3)c21
- inhibition [1]: 2.5%

Compound: O=C1c2ccccc2-c2nc(-c3ccc(O)cc3)cc(-c3ccccc3)c21
- inhibition [2]: 0%

Compound: OC1c2ccccc2-c2nc(-c3ccccc3)cc(-c3ccccc3)c21 (stereo unspecified)
- inhibition [3]: 0%

Compound: O=C1c2ccccc2-c2nc(-c3ccccc3O)cc(-c3ccccc3)c21
- inhibition [2]: 0%

Compound: COc1cc([C@@H]2c3cc4c(cc3[C@@H](O[C@@H]3O[C@@H]5CO[C@@H](C)O[C@H]5[C@H](O)[C@H]3O)[C@H]3COC(=O)[C@H]23)OCO4)cc(OC)c1O [ETOPOSIDE]
- IC50 (HCT-15): 2.38 µM
- Activity [4]: Non-Toxic
- Activity [5]: Non-Toxic
- Activity [6]: Non-Toxic
- Activity [7]: Toxic
- Activity [8]: Toxic
- Activity [9]: Non-Toxic
- IC50 (DU-145): 4.13 µM
- Activity [10]: Toxic
- Activity [11]: Non-Toxic
- Activity [12]: Toxic
- Activity [13]: Toxic
- Activity [14]: Toxic
- Activity [15]: Toxic
- Activity [16]: Toxic
- IC50 (HeLa): 8.09 µM
- Activity [17]: Non-Toxic
- Activity [18]: Non-Toxic
- IC50 (T47D): 5.58 µM
- Activity [19]: Toxic

Compound: CC[C@@]1(O)C(=O)OCc2c1cc1n(c2=O)Cc2cc3ccccc3nc2-1 [CAMPTOTHECIN]
- Activity [20]: Non-Toxic
- Activity [21]: Toxic
- Activity [22]: Non-Toxic
- IC50 (DU-145): 0.21 µM
- Activity [23]: Non-Toxic
- Activity [24]: Toxic
- IC50 (HeLa): 0.23 µM
- IC50 (T47D): 0.09 µM
- Activity [25]: Toxic

Compound: OC1c2ccccc2-c2nc(-c3ccccc3OC(F)(F)F)cc(-c3ccccc3)c21 (stereo unspecified)
- inhibition [3]: 1%
- IC50 (HCT-15): 7.33 µM
- inhibition [26]: 13.8%
- inhibition [27]: 86%
- IC50 (DU-145): 0.71 µM
- inhibition [28]: 37.4%
- IC50 (HeLa): 1730 µM
- IC50 (T47D): 1.06 µM

From ChEMBL document CHEMBL5143515, “Identification of new halogen-containing 2,4-diphenyl indenopyridin-5-one derivative as a boosting agent for the anticancer responses of clinically available topoisomerase inhibitors” (Eur J Med Chem, 2022)
